Data: patent publication US20070078148A1, “Agents for preventing and/or treating higher brain dysfunctions” (Kyowa Hakko Kogyo Co., Ltd., priority 2003, published 2007)
Marks after values point to notes of the source that are not given here.

Key:
Format in all cases: in vivo, rat
[1] = system: SD male rats; experiment: Test for learning of active avoidance (shuttle box, conditioned avoidance behavior); conditions: 1 hour before the test; for Avoidance rate (%): average in 10 rats, Solvent 90.8
Experimental: Experiment was carried with using 10 SD male rats (body weight: 220-280 g) for one group.
Using a shuttle box apparatus consisting of two boxes (TK-401S; Unicom), the rats were made to learn and train (escape training) conditioned avoidance behavior. In one trial in the escape training, an alarm stimulus by light and buzzer sound as a conditioned stimulus was given to the rats for 8 seconds. […] Repetition of the trial was conducted at interval times of 5 seconds, and the escape training was repeated 50 trials/1 training/1 day for 10 days.
The test compound was used as a suspension in injectable distilled water containing 0.3% Tween-80 (by Otsuka Pharmaceutical Co., Ltd.; 0.3% Tween-80 solution) and orally administered to each of the rats at a dose of 10 mL/kg 1 hour before the test (Test compound-administered group). Separately, 0.3% Tween-80 solution alone was orally administered to each of the rats at a dose of 10 mL/kg 1 hour before the test (Solvent-administered group).
For analysis of the test results, various parameters were inputted in a personal computer (NEC; PC-9821Xe) and the avoidance rate (%) (average in 10 rats; the rats which took avoidance behavior by an alarm stimulus was regarded as successful escape; the avoidance rate when the rat succeeded in escaping all 50 trials was regarded as 100%) and the change of the total reaction latency (the time required for the completion of the whole trial) were compared with those of Solvent-administered group. The analysis was carried out by a Steel-test.

[2] = system: Wistar female rats with bilateral ligation of the common carotid arteries; experiment: Maze-learning test in rats prepared by bilateral ligation of the common carotid arteries; conditions: FIG. 1
Experimental: Experiment was carried out using 10 Wistar female rats (body weight 210-310 g) for one group.
Under anesthesia with pentobarbital, the necks of rats were incised and the bilateral common carotid arteries were ligated (ligated rats). Separately, the necks of rats were incised but the bilateral common carotid arteries were not ligated (sham operation rats). Under anesthesia with pentobarbital, the rat was fixed on a brain-fixing apparatus for rat (Narishige; SR-6). Hydrogen electrodes (Unique Medical; UHE-100, IS needle type) were inserted into a brain coordinate (A2.0, L2.0, D-2.0). Hydrogen indifferent electrode (Unique Medical) was placed on the rat's neck. An artificial respiration was applied to the rat through a respiratory apparatus (Shinano Seisakusyo; SN-480-7), through which about 40 mL of hydrogen gas was forcibly inhaled 2 or 3 times at intervals of about 15 minutes. […]
Running for the maze-learning test was performed twice. […] At that time, the frequency of selection of the lanes required for obtaining the 4 hollows of milk was recorded up to 16th round of selection.
The maze-learning test was started from 4 weeks after the bilateral ligation of the common carotid arteries. […] The lanes on which blocks were placed in the first running were determined according to each rat and were maintained constantly during the test period. […]

[3] = system: Wistar (Han) male rats; experiment: Test for learning a delayed alternating problem (non-matching to sample, Skinner box); conditions: 0.3 mg/kg oral once a day
Experimental: The test was carried out in a manner similar to the method as described in Drug Dev. Res., 35, p.83-95 (1996).
Experiment was carried out using 10 Wistar (Han) male rats (body weight 200-250 g) for one group.
A Skinner box (30 cm×25 cm×30 cm) equipped with 3 pull-type lever (at the center, left and right sides) connected to a feeding vessel (supplying 45 mg diet pellet) was used in the experiment. The control of the test condition and the data accumulation were automatically conducted by connecting with a MED.PC program system.
Each rat received learning and training of lever pushing, and thereafter learning and training of a delayed alternating problem. In the learning and training of lever pushing, the rat learned and was trained so that the diet could be obtained by pushing any one of the center, left and right pull-type levers. In the subsequent learning and training of delayed alternating problem, the rat learned and was trained that the diet could be obtained by pushing any one of the left and right levers at first, and then the pushed lever was withdrawn; then, 5 seconds after that, both of the left and right levers were presented, but the diet was supplied only when the opposite side lever of the one pushed previously was pushed.
The test compound was used as a suspension thereof in injectable distilled water containing 0.5% methylcellulose (MC) (Otsuka Pharmaceutical Co.) and was administered orally to each of the rats which learned and trained the lever pushing at a dose of 10 mL/kg volume once a day from the start of learning and training of a delayed alternating problem continuously for a week (Test compound-administered group). Separately, to each of the rats which learned and trained the lever pushing, 0.5% MC solution alone was orally administered at a dose of 10 mL/kg volume once a day from the start of learning and training of a delayed alternating problem continuously for 1 week, and the rats were referred to as Solvent-administered group.
The accuracy rate for the reaction was indicated by the rate (%) of correctly selecting the left or right lever (average of 10 rats), and the test results were analyzed by one-way ANOVA-Student's t test.

[4] = system: albino female rats; experiment: Test for learning of passive avoidance (scopolamine-induced impairment of memory); conditions: for Rate of the rats exhibiting passive avoidance behavior (%) / Rate of the rats exhibiting passive avoidance behavior (rats/total): 2 hours after administration
Experimental: Experiment was carried out using 32 albino female rats (body weight: about 100 g) for one group.
Test for learning of passive avoidance was conducted in a test box (40 cm×31 cm×29 cm) in which a stainless steel grid was spread on the floor so that an electric shock of 1.1 mA can be give randomly. In the test box, a plastic plate (15 cm×5 cm) of 0.5 cm thickness was placed at a corner to cover the floor; and the test box comprised a mechanism that when a rat placed on the plate steps down on the floor grid, the rat results in receiving an electric shock. Usually, the rat attacked by an electric shock immediately gets back on the plastic plate but tries to get down on the floor; then, the rat is attacked by an electric shock again. Usually, the rat gradually changes its behavior with repetition of the shock (learning and training), resulting in staying on the plastic plate (passive avoidance behavior).
After the learning and training, the rats keeping the memory were selected and used for the test based on the memory-keeping test as mentioned below.
The test compound was used as a suspension thereof in distilled water containing 0.3% Tween-80; and scopolamine was used as a solution thereof in distilled water (by Sigma).
To each of the rats which learned the passive avoidance behavior, immediately after learning, 1 mg/kg (2 mL/kg volume) of scopolamine (subcutaneous administration) and 2 mL/kg volume of a test compound (oral administration) was administered simultaneously (Test compound-administered group); and 2 hours after administration, the rats were evaluated whether they kept memory of learning of the passive avoidance behavior. Separately, to each of the rats which learned the passive avoidance behavior, immediately after learning, 2 mL/kg volume of 0.3% Tween-80 solution alone was orally administered, and the rats were referred to as Solvent-administered group; while in the same manner, the rats to which 1 mg/kg of scopolamine (2 mL/kg volume) each were administered subcutaneously, were referred to as Scopolamine-administered group.

[5] = 0.3 mg/kg oral with scopolamine 1 mg/kg s.c.
[6] = 3.0 mg/kg oral with scopolamine 1 mg/kg s.c.
[7] = 30 mg/kg oral with scopolamine 1 mg/kg s.c.

Compound	Time required for completion of the whole trial (sec) ([1]; 0.3 mg/kg oral, Solvent 99.1)	Time required for completion of the whole trial (sec) ([1]; 3.0 mg/kg oral, Solvent 99.1)	Decrease of the learning results (lane selection frequency, second running) caused by bilateral ligation of the common carotid arteries ([2]; 1 mg/kg oral one hour before first trial, p<0.025 vs Solvent-administered group)	Decrease of the learning results (lane selection frequency, second running) caused by bilateral ligation of the common carotid arteries ([2]; 3 mg/kg oral one hour before first trial, p<0.005 vs Solvent-administered group)	Time required for completion of the whole trial ([1]; 0.03 mg/kg oral, Solvent 99.1) [s]	Avoidance rate (%) ([1]; 0.03 mg/kg oral)	Avoidance rate (%) ([1]; 0.3 mg/kg oral)	Accuracy Rate for the reaction everyday (%) (Mean ± Standard deviation) ([3]; 1st day, Solvent 48.3 ± 2.9) [NS %]	Accuracy Rate for the reaction everyday (%) (Mean ± Standard deviation) ([3]; 3rd day, Solvent 39.4 ± 2.9)	Accuracy Rate for the reaction everyday (%) (Mean ± Standard deviation) ([3]; 5th day, Solvent 47.7 ± 2.1)	Accuracy rate for the reaction in a week (%) (Mean ± Standard deviation) ([3]; in a week, Solvent 45.4 ± 1.6, 0.3 mg/kg)	Rate of the rats exhibiting passive avoidance behavior (%) [4, 5]	Rate of the rats exhibiting passive avoidance behavior (rats/total) [4, 5]	Rate of the rats exhibiting passive avoidance behavior (%) [4, 6]	Rate of the rats exhibiting passive avoidance behavior (rats/total) [4, 6]	Rate of the rats exhibiting passive avoidance behavior (%) [4, 7]	Rate of the rats exhibiting passive avoidance behavior (rats/total) [4, 7]	Rate of the rats exhibiting the passive avoidance behavior in comparison with Scopolamine-administered group ([4]; administered simultaneously with scopolamine, p<0.05 Two-tailed Chi Square test)	Rate of the rats exhibiting passive avoidance behavior (rats/total) ([4]; scopolamine alone 1 mg/kg s.c., Solvent 26/32)
COc1cc(/C=C/c2nc3c(c(=O)n(C)c(=O)n3C)n2C)cc(OC)c1OC [Compound 1]	significantly reduced	significantly reduced	significantly improved	significantly improved															
CCn1c(=O)c2c(nc(/C=C/c3ccc(OC)c(OC)c3)n2C)n(CC)c1=O [Compound 2]	64.9 * sec	65.3 ** sec			81.2	96.2	97.2	49.7 ± 2.1	49.4 ± 3.4	60.0 ± 3.0	50.6±1.5	(53.1%)	17/32*	(75.0%)	24/32*	(84.4%)	27/32*	significantly increased	
CN1[C@@H]2C[C@@H](OC(=O)[C@H](CO)c3ccccc3)C[C@H]1[C@@H]1O[C@@H]12 [Scopolamine, scopolamine, reference compound]																			4/32
